Measured values: ChEMBL document CHEMBL1201862, “PubChem BioAssay data set” (2004)
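Each compound was tested at five concentrations against cells in 96-well plates for 48 hours. GI50 marks 50% less growth.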 The source made the active and inactive calls. No stated cut-off is given here; in the data, active = GI50 up to about 1.1 µM and inactive = higher. Where a SMILES comes first, the peptide text is derived from it. The star is where a group is joined. Fmoc = O=C(OCC1c2ccccc2-c2ccccc21)*; Boc = CC(C)(C)OC(=O)*

What was measured:
Assay in all cases: NCI anticancer screen, dose series, 48 h
SK-OV-3 = tested on: SK-OV-3
HT-29 = tested on: HT-29
M14 = tested on: M14
NCI-H460 = tested on: NCI-H460
SF-539 = tested on: SF-539
HCT-15 = tested on: HCT-15
SK-MEL-5 = tested on: SK-MEL-5
A549 = tested on: A549
UO-31 = tested on: UO-31
786-0 = tested on: 786-0
K562 = tested on: K562
SNB-78 = tested on: SNB-78
UACC-257 = tested on: UACC-257
RPMI-8226 = tested on: RPMI-8226
SF-295 = tested on: SF-295
RXF 393 = tested on: RXF 393
SR = tested on: SR
PC-3 = tested on: PC-3
T47D = tested on: T47D
MCF7 = tested on: MCF7

| Structure (SMILES) | GI50 (SK-OV-3) | GI50 (HT-29) | GI50 (M14) | GI50 (NCI-H460) | GI50 (SF-539) | GI50 (HCT-15) [µM] | GI50 (SK-MEL-5) | GI50 (A549) | GI50 (UO-31) | GI50 (786-0) | GI50 (K562) | GI50 (SNB-78) | GI50 (UACC-257) | GI50 (RPMI-8226) | GI50 (SF-295) | GI50 (RXF 393) | GI50 (SR) | GI50 (PC-3) | GI50 (T47D) | GI50 (MCF7) |
| --- | --- | --- | --- | --- | --- | --- | --- | --- | --- | --- | --- | --- | --- | --- | --- | --- | --- | --- | --- | --- |
| Cc1ccc(Cc2c(=O)[nH]nc3ccccc23)cc1 | > 100 µM (inactive) | > 100 µM (inactive) | > 100 µM (inactive) | > 100 µM (inactive) | > 100 µM (inactive) | > 100 | > 100 µM (inactive) | > 100 µM (inactive) | 58.3 µM (inactive) | > 100 µM (inactive) | > 100 µM (inactive) | > 100 µM (inactive) | > 100 µM (inactive) | > 100 µM (inactive) | 89.5 µM (inactive) | – | – | – | – | – |
| CCCCC(C(=O)C(=O)Nc1ccc(C)cc1C)C(=O)C(C)C (stereo unspecified) | – | > 100 µM (inactive) | > 100 µM (inactive) | > 100 µM (inactive) | > 100 µM (inactive) | > 100 | > 100 µM (inactive) | > 100 µM (inactive) | > 100 µM (inactive) | > 100 µM (inactive) | > 100 µM (inactive) | > 100 µM (inactive) | > 100 µM (inactive) | > 100 µM (inactive) | > 100 µM (inactive) | > 100 µM (inactive) | – | – | – | – |
| O=c1ccn(/C=C/C(O)C(O)CO)c(=O)[nH]1 (stereo unspecified) | > 100 µM (inactive) | > 100 µM (inactive) | – | – | > 100 µM (inactive) | > 100 | > 100 µM (inactive) | > 100 µM (inactive) | > 100 µM (inactive) | > 100 µM (inactive) | > 100 µM (inactive) | > 100 µM (inactive) | > 100 µM (inactive) | > 100 µM (inactive) | > 100 µM (inactive) | – | – | – | – | – |
| C/C(CN1C(=O)c2ccccc2C1=O)=N\NS(=O)(=O)c1ccccc1 | > 100 µM (inactive) | > 100 µM (inactive) | > 100 µM (inactive) | > 100 µM (inactive) | > 100 µM (inactive) | > 100 | > 100 µM (inactive) | > 100 µM (inactive) | > 100 µM (inactive) | > 100 µM (inactive) | > 100 µM (inactive) | > 100 µM (inactive) | > 100 µM (inactive) | > 100 µM (inactive) | > 100 µM (inactive) | – | – | – | – | – |
| Cc1cc2c(C)n(Cc3ccc(Cl)cc3Cl)nc2c(C(=O)O)c1C | > 100 µM (inactive) | > 100 µM (inactive) | – | 96.4 µM (inactive) | > 100 µM (inactive) | 91.2 | – | > 100 µM (inactive) | > 100 µM (inactive) | > 100 µM (inactive) | – | > 100 µM (inactive) | > 100 µM (inactive) | > 100 µM (inactive) | > 100 µM (inactive) | > 100 µM (inactive) | – | – | – | – |
| O=C1c2cccc3cccc(c23)C(=O)N1CCCNCCCCNCCCN1C(=O)c2cccc3cccc(c23)C1=O | 0.982 µM (active) | 0.0315 µM (active) | 0.604 µM (active) | 0.0194 µM (active) | 0.0843 µM (active) | 3.22 | 0.644 µM (active) | 0.0495 µM (active) | 2.26 µM (inactive) | 0.0311 µM (active) | 0.0226 µM (active) | – | 0.61 µM (active) | < 0.0205 µM (active) | 0.658 µM (active) | 0.0933 µM (active) | < 0.01 µM (active) | 0.17 µM (active) | 0.515 µM (active) | < 0.0138 µM (active) |
| C[C@]12CCC(=O)C=C1CC[C@@H]1[C@@H]2CC[C@]2(C)C(=O)/C(=C/c3ccncc3)C[C@@H]12 | 20 µM (inactive) | 10.2 µM (inactive) | 14.6 µM (inactive) | 12.3 µM (inactive) | 7.4 µM (inactive) | 15.3 | 8.97 µM (inactive) | 16.4 µM (inactive) | 12.6 µM (inactive) | 15.1 µM (inactive) | 11.7 µM (inactive) | – | 13.4 µM (inactive) | 8.99 µM (inactive) | 15.3 µM (inactive) | 15.6 µM (inactive) | 4.75 µM (inactive) | 12.4 µM (inactive) | 15.9 µM (inactive) | 11.5 µM (inactive) |
| CCOP(=O)(OCC)/C(C#N)=C/c1ccc(-c2ccc(F)cc2F)o1 | 14 µM (inactive) | 16.5 µM (inactive) | 17.2 µM (inactive) | 20 µM (inactive) | 20.7 µM (inactive) | 13.5 | 10.6 µM (inactive) | 15.3 µM (inactive) | 13.1 µM (inactive) | 13.9 µM (inactive) | 12.2 µM (inactive) | – | 13.3 µM (inactive) | 18.4 µM (inactive) | 16.4 µM (inactive) | 29 µM (inactive) | 15 µM (inactive) | 10.8 µM (inactive) | 3.3 µM (inactive) | 19.7 µM (inactive) |
| N#Cc1sc2c(c1OC(=O)c1cccs1)c(=O)n(-c1ccccc1)c(=S)n2-c1ccccc1 | 29.6 µM (inactive) | 29.5 µM (inactive) | 19.1 µM (inactive) | 28.2 µM (inactive) | 22.4 µM (inactive) | 17.3 | 16 µM (inactive) | 31 µM (inactive) | 16.1 µM (inactive) | 31.4 µM (inactive) | 22 µM (inactive) | – | 32 µM (inactive) | 18.7 µM (inactive) | 21 µM (inactive) | 14.9 µM (inactive) | 25.6 µM (inactive) | 18 µM (inactive) | 10.9 µM (inactive) | 21.5 µM (inactive) |
| COC(O)C12OC3CO[Si](C(C)C)(C(C)C)O[Si](C(C)C)(C(C)C)OC3C1Oc1nc(=O)ccn12 (stereo unspecified) | 17.7 µM (inactive) | 6.73 µM (inactive) | 12.7 µM (inactive) | 11.3 µM (inactive) | 15.7 µM (inactive) | 16.3 | 7.87 µM (inactive) | 12.6 µM (inactive) | 15.8 µM (inactive) | 15.2 µM (inactive) | 1.52 µM (inactive) | – | 11.8 µM (inactive) | 1 µM (active) | 12.2 µM (inactive) | 11.9 µM (inactive) | 1.23 µM (inactive) | 4.7 µM (inactive) | 7.69 µM (inactive) | 10.5 µM (inactive) |
| O=C(O)c1ccccc1-c1ccccc1C(=O)c1ccccc1 | > 100 µM (inactive) | > 100 µM (inactive) | > 100 µM (inactive) | > 100 µM (inactive) | > 100 µM (inactive) | > 100 | > 100 µM (inactive) | > 100 µM (inactive) | > 100 µM (inactive) | > 100 µM (inactive) | > 100 µM (inactive) | – | > 100 µM (inactive) | > 100 µM (inactive) | > 100 µM (inactive) | > 100 µM (inactive) | > 100 µM (inactive) | > 100 µM (inactive) | > 100 µM (inactive) | > 100 µM (inactive) |
| CC(C)(C)OC(=O)NCCCCC(NC(=O)C(Cc1c[nH]c2ccccc12)NC(=O)OCC1c2ccccc2-c2ccccc21)C(=O)O (stereo unspecified) (Fmoc-Trp-Lys(Boc)-OH; configuration not given here) | 5 µM (inactive) | 40.5 µM (inactive) | 77.3 µM (inactive) | 34.7 µM (inactive) | 42.3 µM (inactive) | > 100 | 90.2 µM (inactive) | > 100 µM (inactive) | 68.7 µM (inactive) | 80 µM (inactive) | 18.8 µM (inactive) | – | 79.3 µM (inactive) | 25 µM (inactive) | 62.7 µM (inactive) | 59.4 µM (inactive) | 21.9 µM (inactive) | 34.8 µM (inactive) | 54.7 µM (inactive) | 22.9 µM (inactive) |
| O=[N+]([O-])c1ccc(-c2nc(/C=N/N3CCCCC3)cs2)o1 | > 100 µM (inactive) | 25.9 µM (inactive) | 37.4 µM (inactive) | 49.2 µM (inactive) | > 100 µM (inactive) | 32.6 | 18 µM (inactive) | 40 µM (inactive) | > 100 µM (inactive) | > 100 µM (inactive) | 57.5 µM (inactive) | – | 19.3 µM (inactive) | 19.1 µM (inactive) | > 100 µM (inactive) | > 100 µM (inactive) | 30.9 µM (inactive) | > 100 µM (inactive) | 90.2 µM (inactive) | 38.6 µM (inactive) |
| CCOC(=O)COC1=Nc2cc(OC)c(OC)c3nc(Cl)cc(c23)C1=O | 10.1 µM (inactive) | 2.29 µM (inactive) | 1.65 µM (inactive) | 18.8 µM (inactive) | 1.92 µM (inactive) | 2.34 | 1.88 µM (inactive) | 6.18 µM (inactive) | 1.84 µM (inactive) | 1.62 µM (inactive) | 1.2 µM (inactive) | – | 1.75 µM (inactive) | 1.52 µM (inactive) | 10 µM (inactive) | 1.75 µM (inactive) | 0.94 µM (active) | 1.79 µM (inactive) | 2.96 µM (inactive) | 1.7 µM (inactive) |
| CCCN(C(=O)c1c(Cl)nnc(Cl)c1C(=O)c1cc(Cl)nnc1Cl)c1cc(Cl)nnc1Cl | 33.3 µM (inactive) | 16.7 µM (inactive) | 16.1 µM (inactive) | 20.9 µM (inactive) | 7.28 µM (inactive) | 4.65 | 9.18 µM (inactive) | 32.1 µM (inactive) | 17 µM (inactive) | 5.46 µM (inactive) | 4.19 µM (inactive) | – | 14.2 µM (inactive) | 3.65 µM (inactive) | 19.9 µM (inactive) | 2.86 µM (inactive) | 3.08 µM (inactive) | 6.61 µM (inactive) | 4.55 µM (inactive) | 4.49 µM (inactive) |
| CCOC(=O)/C(O)=C(/C(=O)OC)c1ccc(Cl)cc1 | > 100 µM (inactive) | > 100 µM (inactive) | > 100 µM (inactive) | > 100 µM (inactive) | > 100 µM (inactive) | > 100 | > 100 µM (inactive) | > 100 µM (inactive) | > 100 µM (inactive) | > 100 µM (inactive) | > 100 µM (inactive) | > 100 µM (inactive) | > 100 µM (inactive) | > 100 µM (inactive) | > 100 µM (inactive) | – | – | – | – | – |
